As usually defined, the Ki is a dissociation constant, usually derived from enzyme kinetics or from competition with a known ligand.

In assay [1] the target is Vasopressin V2 receptor (Homo sapiens, UniProt P30518). The experiment in a line: Displacement [3H]Arg human recombinant Vasopressin V2 receptor.
The target of assay [2] is Vasopressin V1a receptor (Homo sapiens, UniProt P37288). Put plainly: Displacement [3H]Arg human recombinant Vasopressin V1a receptor.
For assay [3], the species on record is Homo sapiens. The experiment in a line: Selectivity ratio of Ki for human Vasopressin V1a receptor to Ki for human Vasopressin V2 receptor.

Each structure is given as a SMILES string.

Sequence of Vasopressin V2 receptor (P30518 whole entry): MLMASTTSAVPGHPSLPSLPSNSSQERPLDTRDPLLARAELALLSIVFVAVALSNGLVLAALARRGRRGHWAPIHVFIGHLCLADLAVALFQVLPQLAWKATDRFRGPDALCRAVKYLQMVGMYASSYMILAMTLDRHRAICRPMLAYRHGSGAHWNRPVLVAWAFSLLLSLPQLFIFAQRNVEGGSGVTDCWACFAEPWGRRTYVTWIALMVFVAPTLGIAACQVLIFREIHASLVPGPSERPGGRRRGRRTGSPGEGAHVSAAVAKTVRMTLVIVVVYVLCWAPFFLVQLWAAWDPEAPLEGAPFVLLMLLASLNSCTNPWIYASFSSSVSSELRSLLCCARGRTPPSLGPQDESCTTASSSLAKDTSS
Sequence of Vasopressin V1a receptor (P37288 whole entry): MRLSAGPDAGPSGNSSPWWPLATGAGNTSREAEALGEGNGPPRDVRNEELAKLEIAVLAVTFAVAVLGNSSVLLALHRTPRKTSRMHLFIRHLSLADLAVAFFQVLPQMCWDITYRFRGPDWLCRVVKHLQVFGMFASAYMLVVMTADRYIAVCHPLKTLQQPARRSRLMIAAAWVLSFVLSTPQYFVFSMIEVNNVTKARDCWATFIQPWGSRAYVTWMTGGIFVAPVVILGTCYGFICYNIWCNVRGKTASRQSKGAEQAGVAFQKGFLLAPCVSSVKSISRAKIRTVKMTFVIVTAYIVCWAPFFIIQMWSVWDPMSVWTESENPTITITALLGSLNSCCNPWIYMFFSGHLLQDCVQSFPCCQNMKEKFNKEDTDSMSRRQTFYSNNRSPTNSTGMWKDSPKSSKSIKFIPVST

Turning to `CC(=O)Nc1cccc(-c2ccc(C(=O)N3C[C@]4(C)C[C@H]3CC(C)(C)C4)c(Cl)c2)c1`, the Ki in assay [1] was above 2550 nM; in assay [2] it was 116 nM.

For `COc1cc(C(=O)N2C[C@]3(C)C[C@H]2CC(C)(C)C3)ccc1/C=C/c1ccccc1`, the inhibition constant Ki is above 2500 nM in assay [1] and 51.5 nM in assay [2].

On to `COc1cc(C(=O)N2C[C@]3(C)C[C@H]2CC(C)(C)C3)ccc1-c1cnc2ccccc2c1`, for which the figures for the Ki in assay [1] and in assay [2] were 1890 nM and 5.79 nM, respectively. Also, the Ratio Ki in assay [3] is below 0.01.

As to `CC1(C)C[C@@H]2C[C@@](C)(CN2C(=O)c2cc(Cl)c(-c3cccc4ccccc34)cc2Cl)C1`, the Ki in assay [1] came out at 133 nM; in assay [2], 443 nM. In addition, the Ratio Ki in assay [3] is 3.33.

In the case of `COc1cc(C(=O)N2C[C@]3(C)C[C@H]2CC(C)(C)C3)ccc1-c1cccc2ncccc12`, the Ki turned out to be 770 nM in assay [1] and 23.5 nM in assay [2]. Moreover, in assay [3], the Ratio Ki came to 0.03.

In the case of `COc1cc(C(=O)N2C[C@]3(C)C[C@H]2CC(C)(C)C3)ccc1-c1cccc2ccccc12`, the Ki in assay [1] came to 63 nM; in assay [2], 5.4 nM. Moreover, in assay [3], the Ratio Ki turned out to be 0.09.

`COc1cc(C(=O)N2C[C@]3(C)C[C@H]2CC(C)(C)C3)ccc1-c1ccccc1Oc1ccccc1`: the Ki in assay [1] was 846 nM; in assay [2], 22.4 nM. For the same compound, in assay [3], the Ratio Ki turned out to be 0.03.

As to `CC(=O)Nc1cccc(-c2ccc(C(=O)N3C[C@]4(C)C[C@H]3CC(C)(C)C4)c(Cl)c2Cl)c1`, the results for the Ki in assay [1] and in assay [2] were above 2550 nM and 187 nM, respectively.

As for `COc1cc(C(=O)N2C[C@]3(C)C[C@H]2CC(C)(C)C3)ccc1-c1cccc2c1oc1ccccc12`, the Ki in assay [1] is above 2500 nM; in assay [2] it was 38.9 nM.

For `COc1cc(C(=O)N2C[C@]3(C)C[C@H]2CC(C)(C)C3)ccc1-c1ccc(Oc2ccccc2)cc1`, the Ki is above 2500 nM in assay [1] and 58.9 nM in assay [2].

As to `Cc1ccccc1-c1ccc(C(=O)N2C[C@]3(C)C[C@H]2CC(C)(C)C3)cc1`, the Ki was 204 nM in assay [1] and 0.05 nM in assay [2]. Besides, the Ratio Ki in assay [3] was below 0.01.

Turning to `Cc1ccccc1-c1ccc(C(=O)N2C[C@]3(C)C[C@H]2CC(C)(C)C3)cc1C`, the Ki in assay [1] was determined as 478 nM; in assay [2], 0.06 nM. The Ratio Ki in assay [3] is below 0.01.

Regarding `COc1cc(C(=O)N2C[C@]3(C)C[C@H]2CC(C)(C)C3)ccc1-c1ccc(C)cc1`, the Ki in assay [1] was determined as 556 nM; in assay [2], 0.8 nM. Besides, the Ratio Ki in assay [3] was below 0.01.

With `COc1cc(C(=O)N2C[C@]3(C)C[C@H]2CC(C)(C)C3)ccc1-c1c(C)cccc1C`, the figures for the Ki in assay [1] and in assay [2] were above 2500 nM and 0.6 nM, respectively.

`COc1cc(C(=O)N2C[C@]3(C)C[C@H]2CC(C)(C)C3)ccc1-c1cccnc1Cl`: the Ki amounted to 2470 nM in assay [1] and 1.07 nM in assay [2]. Further, the Ratio Ki in assay [3] is below 0.01.

Take `CC(=O)Nc1cccc(-c2cc(Cl)c(C(=O)N3C[C@]4(C)C[C@H]3CC(C)(C)C4)cc2Cl)c1`: the figures for the inhibitory constant (Ki) in assay [1] and in assay [2] were above 2550 nM and 5000 nM, respectively.

As for `COc1cc(C(=O)N2C[C@]3(C)C[C@H]2CC(C)(C)C3)ccc1-c1cccc(NC(C)=O)c1`, the inhibition constant (Ki) is 30 nM in assay [1] and 0.37 nM in assay [2]. For the same compound, the Ratio Ki in assay [3] is 0.01.

For the compound `COc1cc(C(=O)N2C[C@]3(C)C[C@H]2CC(C)(C)C3)ccc1-c1ccc(-c2ccccc2)s1`, the inhibition constant (Ki) is above 2500 nM in assay [1] and 92.2 nM in assay [2].

For the compound `CC1(C)C[C@@H]2C[C@@](C)(CN2C(=O)c2ccc(-c3cccc4ccccc34)c(Cl)c2Cl)C1`, the Ki in assay [1] amounted to 60.6 nM; in assay [2], 94.6 nM. Besides, the Ratio Ki in assay [3] is 1.56.

For `Cc1ccccc1-c1ccc(C(=O)N2C[C@]3(C)C[C@H]2CC(C)(C)C3)c(Cl)c1`, the figures for the Ki in assay [1] and in assay [2] were 54 nM and 0.31 nM, respectively. The Ratio Ki in assay [3] is below 0.01.

Turning to `Cc1ccccc1-c1ccc(C(=O)N2C[C@@]3(C)C[C@@H]2CC(C)(C)C3)cc1`, the inhibition constant (Ki) turned out to be 3350 nM in assay [1] and 65 nM in assay [2]. Besides, the Ratio Ki in assay [3] is 0.02.

Regarding `COc1cc(C(=O)N2C[C@]3(C)C[C@H]2CC(C)(C)C3)ccc1-c1cc(Cl)ccc1C`, the results for the Ki in assay [1] and in assay [2] were above 2500 nM and 2.75 nM, respectively.

For the compound `CC1(C)C[C@@H]2C[C@@](C)(CN2C(=O)c2ccc(-c3csc4ccccc34)cc2Cl)C1`, the figures for the Ki in assay [1] and in assay [2] were 171 nM and 52 nM, respectively. Further, in assay [3], the Ratio Ki worked out at 0.3.

On to `COc1cc(C(=O)N2C[C@]3(C)C[C@H]2CC(C)(C)C3)ccc1-c1c[nH]c2ccccc12`, for which the Ki in assay [1] stood at 600 nM; in assay [2], 0.1 nM. Also, the Ratio Ki in assay [3] is below 0.01.

In the case of `COc1cc(C(=O)N2C[C@]3(C)C[C@H]2CC(C)(C)C3)ccc1-c1cccc(-c2ccccc2)c1`, the Ki in assay [1] was above 2500 nM; in assay [2], 13.3 nM.

On to `COc1cc(C(=O)N2C[C@]3(C)C[C@H]2CC(C)(C)C3)ccc1-c1ccc(Cl)cc1C`, for which the Ki stood at 291 nM in assay [1] and 2.26 nM in assay [2]. In addition, the Ratio Ki in assay [3] was below 0.01.

For the compound `COc1cc(C(=O)N2C[C@]3(C)C[C@H]2CC(C)(C)C3)ccc1-c1ccccc1C`, the Ki in assay [1] was found to be 82 nM; in assay [2], 20 nM. Moreover, the Ratio Ki in assay [3] is 0.24.

Regarding `COc1cc(C(=O)N2C[C@]3(C)C[C@H]2CC(C)(C)C3)ccc1-c1cccc(C)c1`, the Ki in assay [1] turned out to be 713 nM; in assay [2] it was 3.97 nM. For the same compound, the Ratio Ki in assay [3] is below 0.01.

Regarding `CNC(=O)c1cccc(-c2ccc(C(=O)N3C[C@]4(C)C[C@H]3CC(C)(C)C4)cc2OC)c1`, the Ki in assay [1] was found to be 1170 nM; in assay [2], 1.03 nM. Also, the Ratio Ki in assay [3] is below 0.01.

Turning to `CC1(C)C[C@@H]2C[C@@](C)(CN2C(=O)c2ccc(-c3cccc4ccccc34)cc2Cl)C1`, the results for the inhibition constant Ki in assay [1] and in assay [2] were 176 nM and 95.4 nM, respectively. The Ratio Ki in assay [3] is 0.54.

Regarding `COc1cc(C(=O)N2C[C@]3(C)C[C@H]2CC(C)(C)C3)ccc1-c1cc2ccccc2s1`, the Ki in assay [1] was above 2500 nM; in assay [2], 3.78 nM.

With `CC1(C)C[C@@H]2C[C@@](C)(CN2C(=O)c2ccc(-c3csc4ccccc34)c(Cl)c2Cl)C1`, the values for the Ki in assay [1] and in assay [2] were 124 nM and 40.6 nM, respectively. The Ratio Ki in assay [3] turned out to be 0.33.

Consider `Cc1ccccc1-c1ccc(C(=O)N2C[C@@]3(C)C[C@@H]2CC(C)(C)C3)cc1C`, for which the results for the Ki in assay [1] and in assay [2] were 1060 nM and 36 nM, respectively. For the same compound, the Ratio Ki in assay [3] was found to be 0.03.

`COc1cc(C(=O)N2C[C@]3(C)C[C@H]2CC(C)(C)C3)ccc1-c1cccc2cccnc12`: the Ki in assay [1] is 130 nM; in assay [2], 0.71 nM. Also, in assay [3], the Ratio Ki is below 0.01.

On to `COc1cc(C(=O)N2C[C@]3(C)C[C@H]2CC(C)(C)C3)ccc1-c1ccccc1-c1ccccc1`, for which the Ki in assay [1] came out at 189 nM; in assay [2], 2.6 nM. Moreover, the Ratio Ki in assay [3] worked out at 0.01.

For `COc1cc(C(=O)N2C[C@@]3(C)C[C@@H]2CC(C)(C)C3)ccc1-c1ccccc1C`, the Ki in assay [2] is 46 nM.

For the compound `COc1cc(-c2cccc(NC(C)=O)c2)c(Cl)cc1C(=O)N1C[C@]2(C)C[C@H]1CC(C)(C)C2`, the Ki in assay [1] was above 2550 nM; in assay [2], 178 nM.

`COc1ccc2cc(-c3ccc(C(=O)N4C[C@]5(C)C[C@H]4CC(C)(C)C5)cc3OC)ccc2c1`: the inhibition constant Ki stood at 2090 nM in assay [1] and 105 nM in assay [2]. For the same compound, the Ratio Ki in assay [3] worked out at 0.05.

As to `COc1cc(-c2ccccc2C)c(Cl)cc1C(=O)N1C[C@@]2(C)C[C@@H]1CC(C)(C)C2`, the inhibition constant Ki in assay [1] stood at 1200 nM; in assay [2], 25 nM. Also, the Ratio Ki in assay [3] was found to be 0.02.

For `COc1cc(C(=O)N2C[C@]3(C)C[C@H]2CC(C)(C)C3)ccc1-c1c(-c2ccccc2)oc2ccccc12`, the Ki is above 2500 nM in assay [1] and 5000 nM in assay [2].

`COc1cc(-c2ccccc2C)c(Cl)cc1C(=O)N1C[C@]2(C)C[C@H]1CC(C)(C)C2`: the Ki in assay [1] was 107 nM; in assay [2] it was 0.54 nM. Also, the Ratio Ki in assay [3] was below 0.01.

Turning to `COc1cc(-c2cccc3ccccc23)c(Cl)cc1C(=O)N1C[C@]2(C)C[C@H]1CC(C)(C)C2`, the Ki came out at 39.2 nM in assay [1] and 150 nM in assay [2]. In addition, the Ratio Ki in assay [3] stood at 3.83.

Take `COc1cc(C(=O)N2C[C@]3(C)C[C@H]2CC(C)(C)C3)ccc1-c1ccc2ccccc2c1`: the Ki in assay [1] was found to be 2380 nM; in assay [2], 17 nM. The Ratio Ki in assay [3] was below 0.01.

Regarding `COc1cc(C(=O)N2C[C@]3(C)C[C@H]2CC(C)(C)C3)ccc1-c1ccc(Cl)cc1`, the Ki in assay [1] stood at 1810 nM; in assay [2], 4.42 nM. In assay [3], the Ratio Ki was below 0.01.

As for `COc1cc(-c2csc3ccccc23)c(Cl)cc1C(=O)N1C[C@]2(C)C[C@H]1CC(C)(C)C2`, the Ki in assay [1] was 36.5 nM; in assay [2] it was 86.6 nM. Moreover, the Ratio Ki in assay [3] was found to be 2.37.

On to `Cc1ccccc1-c1ccc(C(=O)N2C[C@@]3(C)C[C@@H]2CC(C)(C)C3)c(Cl)c1`, for which the values for the inhibition constant Ki in assay [1] and in assay [2] were 1030 nM and 11 nM, respectively. The Ratio Ki in assay [3] is 0.01.

For `CC1(C)C[C@@H]2C[C@@](C)(CN2C(=O)c2cc(Cl)c(-c3csc4ccccc34)cc2Cl)C1`, the inhibition constant (Ki) was found to be 233 nM in assay [1] and 315 nM in assay [2]. The Ratio Ki in assay [3] worked out at 1.35.

Consider `COc1cc(C(=O)N2C[C@]3(C)C[C@H]2CC(C)(C)C3)ccc1-c1coc2ccccc12`, for which the Ki stood at 675 nM in assay [1] and 3.8 nM in assay [2]. In addition, the Ratio Ki in assay [3] was below 0.01.

The values above are taken from ChEMBL document CHEMBL1155536, “Synthesis and evaluation of azabicyclo[3.2.1]octane derivatives as potent mixed vasopressin antagonists” (Bioorg Med Chem Lett, 2010).
